Publication PMC4505625 (Cancer cell, 2015)
Blank lines part the entries; values can stand above or below the molecule they belong to.

Key:
[1] = tested on: Ba/F3-CRLF2 cells expressing JAK2 R683G or JAK2 R683G/L884P; assay: Proliferation, L884P versus no L884P, JAK2 R683G; format: cell-based; settings: 48 hr
[2] = tested on: MHH-CALL4 cells; assay: Immunoblotting of MHH-CALL4 lysates; format: cell-based, human; settings: 1 μM, 2 hr
[3] = tested on: MHH-CALL4 cells; assay: MHH-CALL4 cell viability; format: cell-based, human; settings: 72 hr
[4] = tested on: Ba/F3-CRLF2 cells transduced with a library of JAK2 R683G; assay: Random mutagenesis screen for resistance; format: cell-based; settings: 3 μM inhibitor, absence of cytokines
[5] = tested on: Ba/F3-CRLF2 cells expressing JAK2 R683G/L884P; assay: Immunoblotting of Ba/F3-CRLF2 JAK2 R683G/L884P lysates; format: cell-based; settings: concentrations up to 200 nM, 2 hr
[6] = tested on: CRLF2-rearranged PDXs; assay: PDX cells ex vivo, proliferation and apoptosis; format: cell-based, human; settings: 1 μM; B-ALL-X2, -X3, -X4, -X6
[7] = tested on: Ba/F3-EpoR cells expressing JAK2 V617F or JAK2 V617F/L884P; assay: Proliferation, L884P versus no L884P, JAK2 V617F; format: cell-based; settings: 48 hr
[8] = tested on: Eμ-CRLF2/Eμ-Jak2 R683G/Ts1Rhr/Pax5+/− (line 2539p) B-ALL; assay: Transplanted transgenic murine B-ALL model; settings: 14 days of treatment from day 15 after transplant
[9] = tested on: MHH-CALL4 cells; assay: Synergy screen with B-ALL chemotherapies; format: cell-based, human; settings: isobologram, combination index
[10] = target: JAK2 (Homo sapiens, UniProt O60674); assay: JAK2-driven cellular assays; format: cell-based
JAK2, sequence (O60674 840-1132 limits assumed): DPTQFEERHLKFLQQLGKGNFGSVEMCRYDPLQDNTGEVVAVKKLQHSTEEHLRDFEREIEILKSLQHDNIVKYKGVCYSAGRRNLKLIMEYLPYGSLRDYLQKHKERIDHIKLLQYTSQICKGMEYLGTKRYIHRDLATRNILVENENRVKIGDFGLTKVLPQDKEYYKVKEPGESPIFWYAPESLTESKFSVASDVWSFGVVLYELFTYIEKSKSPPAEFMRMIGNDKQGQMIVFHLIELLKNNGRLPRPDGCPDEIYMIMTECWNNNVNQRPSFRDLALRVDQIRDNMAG

[11] = tested on: Ba/F3 cells expressing TEL-JAK2; assay: Ba/F3 TEL-JAK2 growth inhibition; format: cell-based
[12] = Pharmacokinetics; format: in vivo, mice
[13] = tested on: PDGFR family kinases; assay: Cell-based kinase selectivity assay
[14] = Passive permeability; format: in vitro ADME
[15] = target: KIT (Homo sapiens, UniProt P10721); assay: Cell-based kinase selectivity assay
KIT, sequence (P10721 26-976, species assumed): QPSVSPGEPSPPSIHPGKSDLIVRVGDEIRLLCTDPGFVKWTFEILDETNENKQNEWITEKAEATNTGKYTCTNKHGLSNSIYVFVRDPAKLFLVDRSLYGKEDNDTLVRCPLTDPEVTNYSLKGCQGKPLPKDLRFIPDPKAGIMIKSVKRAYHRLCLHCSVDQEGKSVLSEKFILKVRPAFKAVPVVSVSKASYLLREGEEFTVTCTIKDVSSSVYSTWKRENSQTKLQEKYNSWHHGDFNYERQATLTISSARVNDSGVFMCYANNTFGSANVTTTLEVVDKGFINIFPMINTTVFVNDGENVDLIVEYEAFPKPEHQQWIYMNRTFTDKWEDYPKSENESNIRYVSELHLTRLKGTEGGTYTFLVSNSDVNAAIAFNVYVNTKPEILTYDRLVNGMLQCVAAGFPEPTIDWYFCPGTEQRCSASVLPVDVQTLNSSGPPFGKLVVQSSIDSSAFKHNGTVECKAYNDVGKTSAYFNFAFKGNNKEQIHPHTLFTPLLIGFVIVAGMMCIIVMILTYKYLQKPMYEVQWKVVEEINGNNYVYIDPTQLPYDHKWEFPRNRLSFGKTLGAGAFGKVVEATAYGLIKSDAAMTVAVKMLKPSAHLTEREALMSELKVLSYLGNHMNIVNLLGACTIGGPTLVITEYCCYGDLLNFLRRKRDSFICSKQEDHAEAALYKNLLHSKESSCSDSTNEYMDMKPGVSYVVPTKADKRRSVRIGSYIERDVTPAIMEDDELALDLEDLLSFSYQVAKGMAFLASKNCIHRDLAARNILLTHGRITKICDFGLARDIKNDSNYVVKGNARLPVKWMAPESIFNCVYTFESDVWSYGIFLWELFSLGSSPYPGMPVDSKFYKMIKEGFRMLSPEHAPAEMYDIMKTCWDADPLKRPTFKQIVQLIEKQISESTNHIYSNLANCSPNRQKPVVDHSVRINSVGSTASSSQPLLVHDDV

[16] = tested on: pSTAT5 in the spleen and bone marrow; assay: rhEpo-induced pSTAT5 in murine model of polycythemia; format: in vivo, mice
[17] = target: activated (phosphorylated) JAK2 kinase (Homo sapiens, UniProt O60674); assay: JAK2 biochemical kinase assay
activated (phosphorylated) JAK2 kinase, sequence (O60674 808-1132): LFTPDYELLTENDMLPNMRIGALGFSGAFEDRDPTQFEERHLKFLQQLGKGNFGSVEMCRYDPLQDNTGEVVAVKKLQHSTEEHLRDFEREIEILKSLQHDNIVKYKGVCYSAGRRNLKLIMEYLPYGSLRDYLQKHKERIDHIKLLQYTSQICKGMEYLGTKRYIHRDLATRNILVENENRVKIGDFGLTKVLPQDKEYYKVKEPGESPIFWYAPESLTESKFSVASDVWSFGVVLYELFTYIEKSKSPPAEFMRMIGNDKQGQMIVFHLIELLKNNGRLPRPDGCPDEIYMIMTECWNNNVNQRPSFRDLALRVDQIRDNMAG

[18] = target: ABL (Homo sapiens, UniProt P00519); assay: Cell-based kinase selectivity assay; settings: follow-up of kinome panel hit
ABL, sequence (P00519 whole entry, species assumed): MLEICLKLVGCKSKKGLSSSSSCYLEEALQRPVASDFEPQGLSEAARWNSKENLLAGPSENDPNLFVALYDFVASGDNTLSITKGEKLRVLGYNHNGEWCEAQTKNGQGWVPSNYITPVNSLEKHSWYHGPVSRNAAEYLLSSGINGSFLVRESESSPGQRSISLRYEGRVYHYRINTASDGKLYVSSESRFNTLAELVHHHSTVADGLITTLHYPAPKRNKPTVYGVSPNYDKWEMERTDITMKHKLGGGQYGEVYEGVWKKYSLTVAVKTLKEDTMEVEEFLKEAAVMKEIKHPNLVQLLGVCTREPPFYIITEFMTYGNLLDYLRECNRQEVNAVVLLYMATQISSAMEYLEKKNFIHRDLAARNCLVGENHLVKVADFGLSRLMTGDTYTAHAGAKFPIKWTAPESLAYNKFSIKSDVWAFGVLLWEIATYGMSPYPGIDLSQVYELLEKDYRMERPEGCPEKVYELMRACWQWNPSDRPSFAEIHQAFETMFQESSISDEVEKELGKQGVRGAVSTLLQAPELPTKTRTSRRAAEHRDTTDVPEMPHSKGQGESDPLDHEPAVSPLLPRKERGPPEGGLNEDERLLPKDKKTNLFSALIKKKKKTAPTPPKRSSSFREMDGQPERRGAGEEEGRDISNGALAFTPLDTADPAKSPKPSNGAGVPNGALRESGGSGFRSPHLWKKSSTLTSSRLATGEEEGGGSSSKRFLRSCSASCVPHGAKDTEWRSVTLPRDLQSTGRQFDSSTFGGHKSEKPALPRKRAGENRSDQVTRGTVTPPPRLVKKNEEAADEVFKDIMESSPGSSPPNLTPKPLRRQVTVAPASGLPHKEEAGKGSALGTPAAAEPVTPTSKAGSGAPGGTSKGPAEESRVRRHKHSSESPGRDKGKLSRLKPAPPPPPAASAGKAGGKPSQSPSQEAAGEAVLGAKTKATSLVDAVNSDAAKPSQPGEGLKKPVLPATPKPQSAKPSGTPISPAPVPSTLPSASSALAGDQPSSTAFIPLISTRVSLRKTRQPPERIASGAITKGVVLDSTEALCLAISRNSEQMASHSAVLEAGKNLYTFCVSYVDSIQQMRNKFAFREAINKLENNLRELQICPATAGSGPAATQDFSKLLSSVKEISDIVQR

[19] = tested on: CRLF2-rearranged PDXs; assay: Dynamic BH3 profiling of PDX cells ex vivo; format: cell-based, human; settings: 300 nM, 16 hr ex vivo
[20] = target: FLT3 (Homo sapiens, UniProt P36888); assay: Off-target activity compared with BBT594
FLT3, sequence (P36888 27-993, species assumed): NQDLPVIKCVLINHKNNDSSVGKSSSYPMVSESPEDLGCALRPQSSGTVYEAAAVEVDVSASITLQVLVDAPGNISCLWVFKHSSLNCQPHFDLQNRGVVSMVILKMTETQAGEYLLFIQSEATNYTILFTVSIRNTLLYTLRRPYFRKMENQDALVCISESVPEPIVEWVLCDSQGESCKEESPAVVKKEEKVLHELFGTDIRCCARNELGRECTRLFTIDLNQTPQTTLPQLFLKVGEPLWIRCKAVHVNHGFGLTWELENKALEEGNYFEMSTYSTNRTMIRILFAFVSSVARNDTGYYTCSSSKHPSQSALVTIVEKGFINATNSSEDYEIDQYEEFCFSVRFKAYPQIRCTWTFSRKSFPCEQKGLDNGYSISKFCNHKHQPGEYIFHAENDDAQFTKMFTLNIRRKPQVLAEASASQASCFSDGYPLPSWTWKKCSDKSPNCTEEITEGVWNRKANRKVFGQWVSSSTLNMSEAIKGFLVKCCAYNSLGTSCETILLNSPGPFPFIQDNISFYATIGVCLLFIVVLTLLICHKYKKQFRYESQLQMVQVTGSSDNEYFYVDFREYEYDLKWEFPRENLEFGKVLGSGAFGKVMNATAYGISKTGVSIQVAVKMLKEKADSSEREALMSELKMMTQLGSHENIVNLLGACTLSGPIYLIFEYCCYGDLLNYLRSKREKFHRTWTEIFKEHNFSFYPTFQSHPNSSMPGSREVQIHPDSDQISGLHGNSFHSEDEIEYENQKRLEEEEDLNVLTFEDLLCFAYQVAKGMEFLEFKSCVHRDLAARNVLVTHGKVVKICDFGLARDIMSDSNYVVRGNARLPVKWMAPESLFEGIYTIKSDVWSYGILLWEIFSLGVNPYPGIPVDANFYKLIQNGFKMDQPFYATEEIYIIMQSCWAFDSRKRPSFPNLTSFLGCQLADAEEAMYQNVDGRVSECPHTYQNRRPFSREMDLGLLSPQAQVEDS

[21] = target: BRAF (Homo sapiens, UniProt P15056); assay: Cell-based kinase selectivity assay; settings: follow-up of kinome panel hit
[22] = tested on: VEGFR family kinases; assay: Cell-based kinase selectivity assay
[23] = target: T1, RET (Homo sapiens, UniProt P07949); assay: Cell-based kinase selectivity assay; settings: follow-up of kinome panel hit
T1 sequence (P07949 29-1114, species assumed): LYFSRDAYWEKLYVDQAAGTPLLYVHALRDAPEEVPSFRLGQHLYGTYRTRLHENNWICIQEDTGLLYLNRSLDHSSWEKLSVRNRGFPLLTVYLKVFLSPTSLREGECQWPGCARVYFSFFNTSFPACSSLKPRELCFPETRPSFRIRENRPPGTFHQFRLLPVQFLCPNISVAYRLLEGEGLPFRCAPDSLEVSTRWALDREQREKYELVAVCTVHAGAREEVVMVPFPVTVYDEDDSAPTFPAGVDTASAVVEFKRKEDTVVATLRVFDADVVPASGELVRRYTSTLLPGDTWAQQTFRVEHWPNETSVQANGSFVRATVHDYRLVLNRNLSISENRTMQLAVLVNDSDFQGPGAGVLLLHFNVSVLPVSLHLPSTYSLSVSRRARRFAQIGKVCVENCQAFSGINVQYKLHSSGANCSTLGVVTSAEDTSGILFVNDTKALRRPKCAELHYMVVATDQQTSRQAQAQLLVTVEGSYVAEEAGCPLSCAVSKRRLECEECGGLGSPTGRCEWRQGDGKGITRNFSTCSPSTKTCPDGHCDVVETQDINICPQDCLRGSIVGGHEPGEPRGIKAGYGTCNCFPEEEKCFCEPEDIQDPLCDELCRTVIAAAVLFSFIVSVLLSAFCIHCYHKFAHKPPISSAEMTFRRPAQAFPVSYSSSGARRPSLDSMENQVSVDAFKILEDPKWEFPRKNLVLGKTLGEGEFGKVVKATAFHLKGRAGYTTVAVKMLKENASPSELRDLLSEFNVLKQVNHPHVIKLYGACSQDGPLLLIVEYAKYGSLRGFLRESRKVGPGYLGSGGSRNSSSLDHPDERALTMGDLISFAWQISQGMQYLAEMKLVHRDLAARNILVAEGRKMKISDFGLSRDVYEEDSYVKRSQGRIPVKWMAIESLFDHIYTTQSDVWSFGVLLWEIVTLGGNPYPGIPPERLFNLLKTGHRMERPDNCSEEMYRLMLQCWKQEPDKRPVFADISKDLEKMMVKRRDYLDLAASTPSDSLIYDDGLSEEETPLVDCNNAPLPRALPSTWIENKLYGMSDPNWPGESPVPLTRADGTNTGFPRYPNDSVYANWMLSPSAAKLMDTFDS

[24] = tested on: wild-type mice; assay: Tolerability in wild-type mice; format: in vivo; settings: 30 mg/kg/day for >6 weeks
[25] = target: T1, RET; assay: Off-target activity compared with BBT594
[26] = Drug concentration within the spleen, rhEpo model; format: in vivo, mice; settings: oral 30 mg/kg/day
[27] = tested on: Ba/F3-CRLF2/JAK2 R683G cells; assay: Immunoblotting of Ba/F3-CRLF2/JAK2 R683G lysates; format: cell-based; settings: 2 hr exposure
[28] = target: BCR-ABL (Homo sapiens, UniProt P00519+P11274); assay: Off-target activity compared with BBT594
BCR-ABL, sequence (P00519 242-493 limits assumed, one chain of several): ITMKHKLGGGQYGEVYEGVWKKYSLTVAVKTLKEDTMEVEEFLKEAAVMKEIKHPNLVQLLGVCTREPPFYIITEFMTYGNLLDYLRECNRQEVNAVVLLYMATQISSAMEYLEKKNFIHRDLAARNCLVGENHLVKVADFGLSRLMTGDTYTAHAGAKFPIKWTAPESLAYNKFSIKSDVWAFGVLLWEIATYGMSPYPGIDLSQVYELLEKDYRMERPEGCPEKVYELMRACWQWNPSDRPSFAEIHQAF

[29] = tested on: CRLF2-rearranged B-ALL PDXs
[30] = tested on: BALB/c mice; assay: rhEpo-induced splenomegaly and reticulocytosis, four days; format: in vivo; settings: 30 mg/kg/day, sacrificed day 5
[31] = tested on: panel consisting of over 400 kinases; assay: In vitro kinase selectivity panel; format: biochemical; settings: 100 nM; including JAK2 and TYK2
[32] = Metabolic stability; format: in vitro ADME

- IC50 fold-shift for cells expressing L884P compared to cells without L884P [1]: minimal effects
SMILES: C[C@@H]1CN(c2ccc(Nc3ncc4ccn(-c5cc(F)c(CN6CCOCC6)c(F)c5)c4n3)cc2)C[C@H](C)N1 [BVB808]
- JAK2 activation loop phosphorylation [2]: hyperphosphorylation
- IC50 [3]: > 2000 nM

- IC50 fold-shift for cells expressing L884P compared to cells without L884P [1]: approximately 11 fold
- IC50 fold-shift for cells expressing L884P compared to cells without L884P [7]: 2–3 fold
SMILES: CC(=O)Nc1cc(Oc2ccc3c(c2)CCN3C(=O)Nc2ccc(CN3CCN(C)CC3)c(C(F)(F)F)c2)ncn1 [BBT594]
- resistant clones recovered after selection [4]: Over 30 clones
- JAK2 activation loop phosphorylation [2]: suppressed JAK2 phosphorylation
- IC50 [3]: ~100 nM
- suppressive effects on pJAK2, pSTAT5, and c-Myc in presence of L884P [5]: abrogated
- apoptosis ex vivo [6]: induced apoptosis
- proliferation ex vivo [6]: consistently blocked proliferation

SMILES: C[C@@H]1C[C@H]2[C@@H]3CCC4=CC(=O)C=C[C@]4(C)[C@@]3(F)[C@@H](O)C[C@]2(C)[C@@]1(O)C(=O)CO [dexamethasone, reference compound]
- overall survival compared to vehicle [8]: increased overall survival
- synergy with CHZ868 [9]: most notable synergy

- IC50 fold-shift for cells expressing L884P compared to cells without L884P [1]: minimal effects
SMILES: Fc1cc(-c2cccc3ncc(-c4cnn(C5CCNCC5)c4)nc23)cc(F)c1CN1CCOCC1 [BSK805]
- JAK2 activation loop phosphorylation [2]: hyperphosphorylation
- IC50 [3]: > 2000 nM

SMILES: N#CC[C@H](C1CCCC1)n1cc(-c2ncnc3[nH]ccc23)cn1 [ruxolitinib]
- JAK2 activation loop phosphorylation [2]: hyperphosphorylation
- apoptosis ex vivo [6]: little or no effect
- proliferation ex vivo [6]: little or no effect

SMILES: CC(=O)Nc1cc(Oc2ccc3c(nc(Nc4ccc(F)cc4F)n3C)c2C)ccn1 [CHZ868]
- potency in JAK2-driven cellular assays [10]: excellent potency
- activity in Ba/F3 TEL-JAK2 cells [11]: highly active
- blood t1/2 ([12]; mice): 1 h
- blood clearance ([12]; mouse, in vivo): moderate
- oral bioavailability ([12]; mouse, in vivo, po): good
- activity against PDGFR family kinases in the cellular setting [13]: low nanomolar activity
- resistant clones recovered after selection [4]: none
- IC50 fold-shift for cells expressing L884P compared to cells without L884P [1]: 4 fold
- passive permeability [14]: high
- activity against KIT in the cellular setting [15]: low nanomolar activity
- induction of pSTAT5 by rhEpo ([16]; oral 30 mg/kg/day, administered 2 hr prior to sampling): completely blocked
- time for which rhEpo induction of pSTAT5 remained attenuated ([16]; spleen and bone marrow): 48–72 hr
- JAK2 activation loop phosphorylation [2]: suppressed JAK2 phosphorylation
- inhibitory activity in enzymatic assays ([17]; activated (phosphorylated) JAK2 kinase): modest inhibitory activity
- JAK2 inhibitory activity, fold improved over BBT594 ([17]; enzymatic and cell-based assays, Figure 1B): 3–9 fold
- activity against ABL in the cellular setting [18]: not corroborated
- IC50 [3]: ~100 nM
- cytochrome C release upon exposure to BIM compared to vehicle [19]: significantly increased
- FLT3 inhibition compared with BBT594 [20]: significantly reduced
- suppressive effects on pJAK2, pSTAT5, and c-Myc in presence of L884P [5]: abrogated
- activity against BRAF in the cellular setting [21]: not corroborated
- activity against VEGFR family kinases in the cellular setting [22]: low nanomolar activity
- apoptosis ex vivo [6]: induced apoptosis
- proliferation ex vivo [6]: consistently blocked proliferation
- activity against RET in the cellular setting [23]: not corroborated
- effects on body weight, peripheral blood cell counts, bone marrow cellularity, fractions of hematopoietic progenitors [24]: no significant effects
- spleen weights [24]: trends towards reduced
- serum erythropoietin levels ([24]; trend): elevated
- RET inhibition compared with BBT594 [25]: significantly reduced
- overall survival compared to vehicle [8]: increased overall survival
- concentration within the spleen ([26]; 2 hr after dosing): 4.3 nmol/g
- drug level within the spleen ([26]; 6 hr after dosing): < 1 nmol/g
- pJAK2 and pSTAT5 by immunoblotting [27]: completely abrogated
- BCR-ABL inhibition compared with BBT594 [28]: significantly reduced
- pSTAT5 in spleens ([29]; 30 mg/kg/day, 6 days): almost complete loss
- peripheral WBC counts compared to control animals ([29]; 30 mg/kg/day, 6 days): lower
- splenomegaly compared to control animals ([29]; 30 mg/kg/day, 6 days): reduced splenomegaly
- overall survival compared to control animals ([29]; 25 days of treatment): markedly improved
- IC50 fold-shift for cells expressing L884P compared to cells without L884P [7]: 2–3 fold
- WBC count [30]: did not affect
- increase in reticulocyte count induced by rhEpo [30]: blocked
- splenomegaly induced by rhEpo [30]: completely blocked
- number of kinases with activity [31]: 26 kinases
- metabolic stability [32]: good
